Assay results as given in patent publication US9227923B2, “Pesticidal carboxamides” (Bayer Intellectual Property GmbH, priority 2009, dated 2016).

Key:
[1] = tested on: Tobacco Cutworm (Spodoptera litura) Larvae; assay: Test against tobacco cutworm (Spodoptera litura) larvae, leaf dip; type: in vivo; details: active compound concentration of 100 ppm; third instar larvae; after 7 days
Protocol: (§1) Solvent: 3 parts by weight of dimethylformamide
(§2) Emulsifier: 1 part by weight of polyoxyethylene alkyl phenyl ether
Leaves of sweet potato were immersed in the test solution at the appropriate concentration, and the leaves were dried in air. The leaves were then placed in a petri dish having a diameter of 9 cm, and ten Spodoptera litura at third instar larvae were released therein. The petri dishes were placed in a temperature-controlled chamber at 25° C. After 2 days and 4 days more sweet potato leaves were added. After 7 days, the number of dead larvae was counted to calculate the insecticidal activity. An insecticidal activity of 100% means that all larvae were killed, whereas an insecticidal activity of 0% means that no larva was killed.

[2] = tested on: Cucurbit Leaf Beetle (Aulacophora Femoralis); assay: Test against cucurbit leaf beetle (Aulacophora femoralis), leaf dip; type: in vivo; details: active compound concentration of 100 ppm; second instar larvae; after 7 days
Protocol: as §1, §2
Leaves of cucumber were immersed in the test solution at the appropriate concentration, and the leaves were dried in air. The leaves were then put in a plastic cup containing sterilized black soil and five Aulacophora femoralis at second instar larvae were released in the cup. The cups were placed in a temperature-controlled chamber at 25° C. After 7 days, the number of dead larvae was counted, and thus the insecticidal activity was calculated. An insecticidal activity of 100% means that all larvae were killed, whereas an insecticidal activity of 0% means that no larva was killed.

Row | Compound | insecticidal activity [1] | insecticidal activity [2]
1 | N#Cc1ccc(C(=O)Nc2c(Cl)cc(C(F)(C(F)(F)F)C(F)(F)F)cc2Cl)cc1 [Compound I-24] | 100% | 100%
2 | O=C(Nc1c(Cl)cc(C(F)(C(F)(F)F)C(F)(F)F)cc1Cl)c1ccc(CNC(=O)C2CC2)c(Cl)c1 [Compound 5-231] | 100% | 100%
3 | CCc1cc(C(F)(C(F)(F)F)C(F)(F)F)cc(C)c1NC(=O)c1cc(F)c(CNC(=O)c2cccnc2Cl)cc1F [Compound 5-183] | 100% | 100%
4 | CCC(=O)NCc1ccc(C(=O)Nc2c(C)cc(C(F)(C(F)(F)F)C(F)(F)C(F)(F)F)cc2C)cc1Br (stereo not shown) [Compound 5-212] | 100% | 100%
5 | CCC(=O)NCc1ccc(C(=O)Nc2c(C)cc(C(F)(C(F)(F)F)C(F)(F)F)cc2C)c(F)c1 [Compound 5-22] | 100% | 100%
6 | CCc1cc(C(F)(C(F)(F)F)C(F)(F)C(F)(F)F)cc(C)c1NC(=O)c1ccc(CNC(=O)c2cccnc2Cl)c(F)c1F (stereo not shown) [Compound 5-206] | 100% | 100%
7 | CC(=O)NCc1ccc(C(=O)Nc2c(C)cc(C(F)(C(F)(F)F)C(F)(F)C(F)(F)F)cc2C)cc1Br (stereo not shown) [Compound 5-211] | 100% | 100%
8 | N#Cc1ccc(C(=O)Nc2c(Br)cc(C(F)(C(F)(F)F)C(F)(F)F)cc2Br)cc1 [Compound I-26] | 100% | 100%
9 | CCC(=O)NCc1ccc(C(=O)Nc2c(C)cc(C(F)(C(F)(F)F)C(F)(F)C(F)(F)F)cc2CC)cc1F (stereo not shown) [Compound 5-145] | 100% | 100%
10 | CCc1cc(C(F)(C(F)(F)F)C(F)(F)C(F)(F)F)cc(C)c1NC(=O)c1ccc(CNC(C)=O)c(F)c1 (stereo not shown) [Compound 5-144] | 100% | 100%
11 | CCC(=O)NCc1ccc(C(=O)Nc2c(C)cc(C(F)(C(F)(F)F)C(F)(F)C(F)(F)F)cc2C)cc1 (stereo not shown) [Compound 5-127] | – | 100%
12 | CCc1cc(C(F)(C(F)(F)F)C(F)(F)F)cc(C)c1NC(=O)c1ccc(CNC(=O)C[S+](C)[O-])c(Br)c1 (stereo not shown) [Compound 5-177] | 100% | 100%
13 | CCc1cc(C(F)(C(F)(F)F)C(F)(F)F)cc(C)c1NC(=O)c1ccc(CNC(=O)C2CC2)c(Cl)c1 [Compound 5-79] | 100% | 100%
14 | CCc1cc(C(F)(C(F)(F)F)C(F)(F)F)cc(C)c1NC(=O)c1ccc(CNC(=O)c2ccccc2F)cc1 [Compound 5-34] | 100% | 100%
15 | CCc1cc(C(F)(C(F)(F)F)C(F)(F)F)cc(C)c1NC(=O)c1ccc(-n2cncn2)c2ccccc12 [Compound 2-2] | 100% | 100%
16 | O=C(Nc1c(Cl)cc(C(F)(C(F)(F)F)C(F)(F)C(F)(F)F)cc1Cl)c1ccc(CNC(=O)C2CC2)cc1 (stereo not shown) [Compound 5-326] | 100% | 100%
17 | CCC(=O)NCc1ccc(C(=O)Nc2c(C)cc(C(F)(C(F)(F)F)C(F)(F)F)cc2CC)cc1C [Compound 5-100] | 100% | 100%
18 | O=C(CC(F)(F)F)NCc1ccc(C(=O)Nc2c(Cl)cc(C(F)(C(F)(F)F)C(F)(F)F)cc2Cl)cc1 [Compound 5-226] | – | 100%
19 | CCc1cc(C(F)(C(F)(F)F)C(F)(F)F)cc(C)c1NC(=O)c1ccc(CNC(C)=O)cc1Cl [Compound 5-65] | – | 100%
20 | CCc1cc(C(F)(C(F)(F)F)C(F)(F)F)cc(C)c1NC(=O)c1ccc(CNC(=O)CC2CC2)c([N+](=O)[O-])c1 [Compound 5-117] | 100% | –
21 | CCc1cc(C(F)(C(F)(F)F)C(F)(F)F)cc(C)c1NC(=O)c1ccc(CNC(=O)C2CC2)c(C(F)(F)F)c1 [Compound 5-108] | 100% | –

Row | Compound | insecticidal activity [1] | insecticidal activity [2]
22 | CCc1cc(C(F)(C(F)(F)F)C(F)(F)F)cc(C)c1NC(=O)c1ccc(CNC(C)=O)c(I)c1 [Compound 5-190] | 100% | –
23 | CCc1cc(C(F)(C(F)(F)F)C(F)(F)F)cc(C)c1NC(=O)c1ccc(C(C)NC(=O)CC2CC2)cc1 (stereo not shown) [Compound 9-5] | 100% | –
24 | CCc1cc(C(F)(C(F)(F)F)C(F)(F)F)cc(C)c1NC(=O)c1ccc(CNC(=O)CC(F)(F)F)cn1 [Compound 7-6] | 100% | –
25 | CCc1cc(C(F)(C(F)(F)F)C(F)(F)F)cc(C)c1NC(=O)c1ccc(CNC(=O)c2ccc(Cl)cc2)cc1 [Compound 5-39] | 100% | –
26 | CCc1cc(C(F)(C(F)(F)F)C(F)(F)F)cc(C)c1NC(=O)c1ccc(CNC(=O)c2cccc(Cl)c2)cc1 [Compound 5-38] | 100% | –
27 | CCC(=O)NCc1ccc(C(=O)Nc2c(C)cc(C(F)(C(F)(F)F)C(F)(F)C(F)(F)F)cc2CC)cc1I (stereo not shown) [Compound 5-195] | 100% | –
28 | CCc1cc(C(F)(C(F)(F)F)C(F)(F)C(F)(F)F)cc(C)c1NC(=O)c1ccc(CNC(=O)CC2CC2)c(Br)c1 (stereo not shown) [Compound 5-160] | 100% | –
29 | Cc1cc(C(F)(C(F)(F)F)C(F)(F)F)cc(C)c1NC(=O)c1ccc(-n2cncn2)cc1Cl [Compound 1-5] | – | 100%
30 | CCc1cc(C(F)(C(F)(F)F)C(F)(F)F)cc(C)c1NC(=O)c1ccc(C#N)cc1F [Compound I-3] | 100% | –
31 | CCC(=O)NCc1ccc(C(=O)Nc2c(C)cc(C(F)(C(F)(F)F)C(F)(F)F)cc2CC)c(F)c1F [Compound 5-52] | 100% | –
32 | CCc1cc(C(F)(C(F)(F)F)C(F)(F)F)cc(C)c1NC(=O)c1ccc(CN(C)C(=O)c2cccnc2Cl)cc1 [Compound 5-189] | 100% | –
33 | CCc1cc(C(F)(C(F)(F)F)C(F)(F)F)cc(C)c1NC(=O)c1ccc(CNC(=O)CC2CC2)c(F)c1F [Compound 5-54] | 100% | –
34 | Cc1cc(C(F)(C(F)(F)F)C(F)(F)F)cc(OC(F)F)c1NC(=O)c1ccc(CN)c(Cl)c1 [Compound 5-293] | 100% | –
35 | CCc1cc(C(F)(C(F)(F)F)C(F)(F)F)cc(C)c1NC(=O)c1ccc(CN)c(Br)c1 [Compound 5-83] | 100% | –
36 | CCC(=O)NCc1ccc(C(=O)Nc2c(C)cc(C(F)(C(F)(F)F)C(F)(F)F)cc2C)cc1 [Compound 5-3] | 100% | –
37 | CCc1cc(C(F)(C(F)(F)F)C(F)(F)F)cc(C)c1NC(=O)c1ccc2c(c1)CCCC2NC(=O)CC(F)(F)F (stereo not shown) [Compound 11-6] | 100% | –
38 | CCc1cc(C(F)(C(F)(F)F)C(F)(F)F)cc(C)c1NC(=O)c1ccc(CNC(C)=O)c(C(F)(F)F)c1 [Compound 5-106] | 100% | –
39 | CCc1cc(C(F)(C(F)(F)F)C(F)(F)F)cc(C)c1NC(=O)c1ccc(CNC(=O)CC2CC2)c(C)c1 [Compound 5-101] | 100% | –
40 | Cc1cc(C(F)(C(F)(F)F)C(F)(F)F)cc(C)c1NC(=O)c1ccc(CNC(=O)CC2CC2)cc1F [Compound 5-24] | 100% | –
41 | CCC(=O)NCc1cc(C(=O)Nc2c(C)cc(C(F)(C(F)(F)F)C(F)(F)F)cc2CC)ccc1-n1cncn1 [Compound 12-4] | 100% | –
42 | Cc1cc(C(F)(C(F)(F)F)C(F)(F)F)cc(Cl)c1NC(=O)c1ccc(CNC(=O)CC(F)(F)F)cc1 [Compound 5-335] | 100% | –
